# In ChEMBL document CHEMBL1133814, “Synthesis and progesterone receptor antagonist activities of 6-aryl benzimidazolones and benzothiazolones” (Bioorg Med Chem Lett, 2001):
# Tests used:
# [1] = biological target: T1, Progesterone receptor (Homo sapiens, UniProt P06401); test: Inhibitory concentration against progesterone stimulated alkaline phosphatase activity in T47D human breast carcinoma cell line; assay type: cell-based
# T1 sequence (P06401 whole entry): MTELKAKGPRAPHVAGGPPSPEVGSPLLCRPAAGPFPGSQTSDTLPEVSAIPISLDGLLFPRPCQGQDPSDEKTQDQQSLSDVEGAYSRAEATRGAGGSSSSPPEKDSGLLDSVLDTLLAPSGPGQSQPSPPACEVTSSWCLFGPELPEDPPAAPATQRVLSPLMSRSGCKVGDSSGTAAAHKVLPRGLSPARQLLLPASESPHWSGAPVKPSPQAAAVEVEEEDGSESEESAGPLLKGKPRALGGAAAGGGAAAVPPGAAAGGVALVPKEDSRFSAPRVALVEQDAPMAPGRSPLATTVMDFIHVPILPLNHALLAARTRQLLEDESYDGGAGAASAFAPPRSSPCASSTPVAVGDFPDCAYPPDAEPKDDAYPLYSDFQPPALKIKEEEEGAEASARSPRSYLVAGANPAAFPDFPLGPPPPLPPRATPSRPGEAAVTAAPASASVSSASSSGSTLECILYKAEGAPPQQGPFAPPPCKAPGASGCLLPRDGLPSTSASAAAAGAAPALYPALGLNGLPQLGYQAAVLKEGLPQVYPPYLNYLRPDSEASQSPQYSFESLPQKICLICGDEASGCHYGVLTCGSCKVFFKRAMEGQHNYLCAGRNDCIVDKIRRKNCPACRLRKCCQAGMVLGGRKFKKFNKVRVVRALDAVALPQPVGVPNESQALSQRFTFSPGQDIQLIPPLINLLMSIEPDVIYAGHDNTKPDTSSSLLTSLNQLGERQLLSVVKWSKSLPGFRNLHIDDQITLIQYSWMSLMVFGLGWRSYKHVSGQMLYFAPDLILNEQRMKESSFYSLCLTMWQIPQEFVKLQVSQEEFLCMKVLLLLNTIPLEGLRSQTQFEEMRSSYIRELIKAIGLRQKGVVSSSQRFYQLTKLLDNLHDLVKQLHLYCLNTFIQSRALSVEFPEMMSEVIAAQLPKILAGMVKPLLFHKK
# [2] = biological target: T1, Progesterone receptor; test: Inhibitory concentration against progesterone induced PRE-luciferase activity in CV-cells; set-up: species or system Oryctolagus cuniculus
# [3] = biological target: T1, Progesterone receptor; test: Binding affinity towards progesterone receptor was measured
Compound,IC50 [1],IC50 [2],Ki [3]
S=c1[nH]c2cc(-c3cccc(Cl)c3)ccc2n1Cc1ccccc1,> 10000 nM,,
O=c1[nH]c2ccc(-c3cccc([N+](=O)[O-])c3)cc2n1Cc1ccccc1,62 nM,257 nM,714 nM
CC(C)n1c(=O)[nH]c2ccc(-c3cccc([N+](=O)[O-])c3)cc21,73.1 nM,136 nM,525 nM
CCn1c(=O)[nH]c2ccc(-c3cccc(Cl)c3)cc21,29.2 nM,106 nM,~1000 nM
CC(C)n1c(=O)[nH]c2ccc(-c3cccc(Cl)c3)cc21,113 nM,412 nM,525 nM
O=c1[nH]c2ccc(-c3cccc(Cl)c3)cc2n1Cc1ccccc1,113 nM,,521 nM
Cn1c(=O)[nH]c2ccc(-c3cccc([N+](=O)[O-])c3)cc21,1000 nM,,> 10000 nM
O=[N+]([O-])c1cccc(-c2ccc3[nH]c(=S)n(Cc4ccccc4)c3c2)c1,10 nM,,30 nM
O=c1[nH]c2ccc(-c3cccc(Cl)c3)cc2s1,460 nM,265 nM,127 nM
Oc1nc2cc(-c3cccc(Cl)c3)ccc2n1Cc1ccccc1,> 10000 nM,3060 nM,3130 nM

# Continued, values first:
IC50 [1],IC50 [2],Ki [3],Compound
> 10000 nM,> 10000 nM,> 10000 nM,O=[N+]([O-])c1cccc(-c2ccc3c(c2)nc(O)n3Cc2ccccc2)c1
83.8 nM,326 nM,332 nM,O=c1[nH]c2ccc(-c3cccc([N+](=O)[O-])c3)cc2s1
17 nM,,150 nM,S=c1[nH]c2ccc(-c3cccc(Cl)c3)cc2n1Cc1ccccc1
1000 nM,,,Cn1c(=O)[nH]c2ccc(-c3cccc(Cl)c3)cc21
